Data published in ChEMBL document CHEMBL1134520, “Potent somatostatin undecapeptide agonists selective for somatostatin receptor 1 (sst1)” (J Med Chem, 2001).
Numbered stars: 1 amine (or outer) side, 2 acyl side, 3 side chain; on linkers, the order of the positions; unused ones are H or OH. Bridge positions count the residues as written; N and C are the ends. Square brackets hold non-standard residues; d marks the D form. Peptide text beside a SMILES is read from it. Phe(4-NO2) = N[C@@H](Cc1ccc([N+](=O)[O-])cc1)C(=O)O; Phe(4-CH2NHiPr) = CC(C)NCc1ccc(C[C@H](N)C(=O)O)cc1; X1 = CC(C)CNCc1ccc(C[C@H](N[*:1])C(=O)[*:2])cc1; Phe(4-CH2NH2) = NCc1ccc(C[C@H](N)C(=O)O)cc1; d2Nal = N[C@H](Cc1ccc2ccccc2c1)C(=O)O

Columns and labels:
[1] = target: Somatostatin receptor type 3 (Homo sapiens, UniProt P32745); experiment: Tested for ability to bind to 20 uM thick cryostat sections of a membrane pellet of cells transfected with human cloned somatostatin (sst) receptor subtype 3.
[2] = target: Somatostatin receptor type 1 (Homo sapiens, UniProt P30872); experiment: Tested for ability to bind to 20 uM thick cryostat sections of a membrane pellet of cells transfected with human cloned somatostatin (sst) receptor subtype 1.
[3] = target: Somatostatin receptor type 5 (Homo sapiens, UniProt P35346); experiment: Tested for ability to bind to 20 uM thick cryostat sections of a membrane pellet of cells transfected with human cloned somatostatin (sst) receptor subtype 5.
[4] = target: Somatostatin receptor type 2 (Homo sapiens, UniProt P30874); experiment: Tested for ability to bind to 20 uM thick cryostat sections of a membrane pellet of cells transfected with human cloned somatostatin (sst) receptor subtype 2.
[5] = target: Somatostatin receptor type 4 (Homo sapiens, UniProt P31391); experiment: Tested for ability to bind to 20 uM thick cryostat sections of a membrane pellet of cells transfected with human cloned somatostatin (sst) receptor subtype 4.
Somatostatin receptor type 4, sequence (P31391 whole entry): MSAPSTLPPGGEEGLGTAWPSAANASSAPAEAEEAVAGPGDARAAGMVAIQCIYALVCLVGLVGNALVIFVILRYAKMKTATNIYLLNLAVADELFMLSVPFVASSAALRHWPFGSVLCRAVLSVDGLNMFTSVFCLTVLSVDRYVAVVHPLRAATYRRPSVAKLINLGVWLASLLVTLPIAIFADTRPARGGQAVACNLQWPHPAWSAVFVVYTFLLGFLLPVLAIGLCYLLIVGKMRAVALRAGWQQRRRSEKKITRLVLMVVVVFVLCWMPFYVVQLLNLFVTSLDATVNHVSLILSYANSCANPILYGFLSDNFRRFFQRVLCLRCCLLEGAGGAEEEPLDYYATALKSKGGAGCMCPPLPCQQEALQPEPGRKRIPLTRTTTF

Somatostatin receptor type 2, sequence (P30874 whole entry): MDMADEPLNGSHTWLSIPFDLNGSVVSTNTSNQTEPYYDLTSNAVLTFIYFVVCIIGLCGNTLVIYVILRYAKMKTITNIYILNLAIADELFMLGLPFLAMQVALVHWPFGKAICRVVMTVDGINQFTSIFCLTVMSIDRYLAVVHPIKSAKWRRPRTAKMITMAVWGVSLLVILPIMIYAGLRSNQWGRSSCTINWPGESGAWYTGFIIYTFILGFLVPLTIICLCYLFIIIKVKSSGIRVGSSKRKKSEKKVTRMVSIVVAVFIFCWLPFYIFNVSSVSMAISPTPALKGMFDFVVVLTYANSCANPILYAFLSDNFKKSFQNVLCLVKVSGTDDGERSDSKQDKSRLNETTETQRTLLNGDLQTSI
Somatostatin receptor type 5, sequence (P35346 whole entry): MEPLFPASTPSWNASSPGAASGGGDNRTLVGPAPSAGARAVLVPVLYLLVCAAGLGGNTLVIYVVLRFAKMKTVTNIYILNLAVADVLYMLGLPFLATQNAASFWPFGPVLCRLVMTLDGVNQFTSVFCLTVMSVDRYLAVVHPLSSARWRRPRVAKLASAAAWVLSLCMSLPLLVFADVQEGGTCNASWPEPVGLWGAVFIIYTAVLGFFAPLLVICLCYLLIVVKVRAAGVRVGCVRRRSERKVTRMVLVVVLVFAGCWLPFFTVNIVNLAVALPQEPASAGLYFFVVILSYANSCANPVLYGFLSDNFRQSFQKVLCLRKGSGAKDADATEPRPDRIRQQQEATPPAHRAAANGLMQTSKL
Somatostatin receptor type 3, sequence (P32745 whole entry): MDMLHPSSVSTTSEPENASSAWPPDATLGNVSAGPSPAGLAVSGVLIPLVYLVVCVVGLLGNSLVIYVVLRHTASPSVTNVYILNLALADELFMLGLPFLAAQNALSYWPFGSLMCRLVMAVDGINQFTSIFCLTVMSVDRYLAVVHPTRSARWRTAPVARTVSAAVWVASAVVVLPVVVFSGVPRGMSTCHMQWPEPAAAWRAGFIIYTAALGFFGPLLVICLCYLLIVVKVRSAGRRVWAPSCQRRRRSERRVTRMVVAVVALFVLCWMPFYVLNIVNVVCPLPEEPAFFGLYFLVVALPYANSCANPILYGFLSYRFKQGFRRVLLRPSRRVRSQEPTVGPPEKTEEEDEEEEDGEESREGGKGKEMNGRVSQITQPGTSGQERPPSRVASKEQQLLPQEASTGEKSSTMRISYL
Somatostatin receptor type 1, sequence (P30872 whole entry): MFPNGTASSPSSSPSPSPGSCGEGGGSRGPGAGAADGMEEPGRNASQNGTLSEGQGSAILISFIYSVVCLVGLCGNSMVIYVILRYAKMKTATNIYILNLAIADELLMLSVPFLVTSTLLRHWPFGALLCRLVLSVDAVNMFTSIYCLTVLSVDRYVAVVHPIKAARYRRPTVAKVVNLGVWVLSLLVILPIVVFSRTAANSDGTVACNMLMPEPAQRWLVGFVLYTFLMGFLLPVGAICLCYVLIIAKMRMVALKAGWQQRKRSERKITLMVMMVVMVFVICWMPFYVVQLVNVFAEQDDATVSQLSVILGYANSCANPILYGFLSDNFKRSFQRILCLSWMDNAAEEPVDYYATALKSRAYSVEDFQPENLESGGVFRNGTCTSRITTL

Compound | IC50 [1] [nM] | IC50 [2] [nM] | IC50 [3] [nM] | IC50 [4] [nM] | IC50 [5] [nM]
CC(C)NCc1ccc(C[C@@H]2NC(=O)[C@@H](Cc3ccc4ccccc4c3)NC(=O)[C@H](Cc3ccccc3)NC(=O)[C@H](Cc3ccccc3)NC(=O)[C@H](CCCCN)NC(=O)[C@@H](NC(=O)[C@@H](N)Cc3ccc(O)cc3)CSSC[C@@H](C(=O)O)NC(=O)[C@H](CO)NC(=O)[C@H]([C@@H](C)O)NC(=O)[C@H](Cc3ccccc3)NC(=O)[C@H]([C@@H](C)O)NC2=O)cc1 | 633 | 24 | > 1000 | > 1000 | > 1000
CC(C)NCc1ccc(C[C@@H]2NC(=O)[C@@H](Cc3ccc4ccccc4c3)NC(=O)[C@H](Cc3ccccc3)NC(=O)[C@H](Cc3ccccc3)NC(=O)[C@H](CCCCN)NC(=O)[C@@H](NC(=O)CCc3ccc(O)cc3)CSSC[C@@H](C(=O)O)NC(=O)[C@H](CO)NC(=O)[C@H]([C@@H](C)O)NC(=O)[C@H](Cc3ccccc3)NC(=O)[C@H]([C@@H](C)O)NC2=O)cc1 | > 1000 | 563 | > 10000 | > 1000 | > 10000
CC(C)NCc1ccc(C[C@@H]2NC(=O)[C@@H](Cc3c[nH]c4ccccc34)NC(=O)[C@H](Cc3ccccc3)NC(=O)[C@H](Cc3ccccc3)NC(=O)[C@@H](NC(=O)[C@@H](N)Cc3ccc(O)cc3)CSSC[C@@H](C(=O)O)NC(=O)[C@H]([C@@H](C)O)NC(=O)[C@H](Cc3ccccc3)NC(=O)[C@H]([C@@H](C)O)NC2=O)cc1 | 445 | 720 |  | > 10000 | > 1000
CC(C)NCc1ccc(C[C@@H]2NC(=O)[C@@H](Cc3cn(Cc4ccccc4)cn3)NC(=O)[C@H](Cc3ccccc3)NC(=O)[C@H](Cc3ccccc3)NC(=O)[C@H](CCCCN)NC(=O)[C@@H](N)CSSC[C@@H](C(=O)O)NC(=O)[C@H](CO)NC(=O)[C@H]([C@@H](C)O)NC(=O)[C@H](Cc3ccccc3)NC(=O)[C@H]([C@@H](C)O)NC2=O)cc1 | > 1000 | > 1000 | > 10000 | > 1000 | > 10000
CC(C)NCc1ccc(C[C@@H]2NC(=O)[C@@H](Cc3ccc4ccccc4c3)NC(=O)[C@H](Cc3ccccc3)NC(=O)[C@H](Cc3ccccc3)NC(=O)[C@H](CCCCN)NC(=O)[C@H](NC(=O)CCc3ccc(O)cc3)CSSC[C@H](C(=O)O)NC(=O)[C@H](CO)NC(=O)[C@H]([C@@H](C)O)NC(=O)[C@H](Cc3ccccc3)NC(=O)[C@H]([C@@H](C)O)NC2=O)cc1 | > 1000 | > 1000 | > 1000 | > 1000 | > 1000
CC(C)NCc1ccc(C[C@@H]2NC(=O)[C@@H](Cc3ccc4ccccc4c3)NC(=O)[C@H](Cc3ccccc3)NC(=O)[C@H](Cc3ccccc3)NC(=O)[C@H](CCCCN)NC(=O)[C@H](NC(=O)CCc3ccc(O)cc3)CSSC[C@@H](C(=O)O)NC(=O)[C@H](CO)NC(=O)[C@H]([C@@H](C)O)NC(=O)[C@H](Cc3ccccc3)NC(=O)[C@@H]([C@@H](C)O)NC2=O)cc1 (stereo in doubt; 31) | > 1000 | 975 | > 10000 | > 10000 | > 1000
CC(C)NCc1ccc(C[C@@H]2NC(=O)[C@@H](Cc3ccc4ccccc4c3)NC(=O)[C@H](Cc3ccc([N+](=O)[O-])cc3)NC(=O)[C@H](Cc3ccccc3)NC(=O)[C@H](CCCCN)NC(=O)[C@@H](N)CSSC[C@@H](C(=O)O)NC(=O)[C@H](CO)NC(=O)[C@H]([C@@H](C)O)NC(=O)[C@H](Cc3ccccc3)NC(=O)[C@H]([C@@H](C)O)NC2=O)cc1 (H-CKF[Phe(4-NO2)][d2Nal][Phe(4-CH2NHiPr)]TFTSC-OH; disulfide 1-11) | 975 | 35 | > 1000 | > 1000 | > 1000
C[C@@H](O)[C@@H]1NC(=O)[C@H](Cc2ccccc2)NC(=O)[C@H]([C@@H](C)O)NC(=O)[C@H](Cc2ccc(CN)cc2)NC(=O)[C@@H](Cc2ccc3ccccc3c2)NC(=O)[C@H](Cc2ccccc2)NC(=O)[C@H](Cc2ccccc2)NC(=O)[C@H](CCCCN)NC(=O)[C@@H](N)CSSC[C@@H](C(=O)O)NC(=O)[C@H](CO)NC1=O | 81 | 347 | 385 | 343 | > 1000
CC(C)NCc1ccc(C[C@@H]2NC(=O)[C@@H](Cc3c[nH]c4ccccc34)NC(=O)[C@H](Cc3ccc(O)cc3)NC(=O)[C@H](Cc3ccccc3)NC(=O)[C@H](CCCCN)NC(=O)[C@@H](N)CSSC[C@@H](C(=O)O)NC(=O)[C@H](CO)NC(=O)[C@H]([C@@H](C)O)NC(=O)[C@H](Cc3ccccc3)NC(=O)[C@H]([C@@H](C)O)NC2=O)cc1 | > 10000 | 530 | > 1000 | > 10000 | > 10000
CC(C)NCc1ccc(C[C@@H]2NC(=O)[C@@H](Cc3c[nH]c4ccccc34)NC(=O)[C@H](Cc3ccccc3)NC(=O)[C@@H](NC(=O)[C@@H](N)Cc3ccc(O)cc3)CSSC[C@@H](C(=O)O)NC(=O)[C@H](Cc3ccccc3)NC(=O)[C@H]([C@@H](C)O)NC2=O)cc1 (H-YCF[dW][Phe(4-CH2NHiPr)]TFC-OH; disulfide 2-8) | > 1000 | > 1000 |  | > 1000 | > 1000
C[C@@H](O)[C@@H]1NC(=O)[C@H](Cc2ccccc2)NC(=O)[C@H]([C@@H](C)O)NC(=O)[C@H](Cc2ccc(CN)cc2)NC(=O)[C@@H](Cc2c[nH]c3ccccc23)NC(=O)[C@H](Cc2ccccc2)NC(=O)[C@H](Cc2ccccc2)NC(=O)[C@H](CCCCN)NC(=O)[C@@H](N)CSSC[C@@H](C(=O)O)NC(=O)[C@H](CO)NC1=O (H-CKFF[dW][Phe(4-CH2NH2)]TFTSC-OH; disulfide 1-11) | 273 | 309 | 190 | 213 | 267
CCN=C(NCC)NCCCC[C@@H]1NC(=O)[C@@H](Cc2c[nH]c3ccccc23)NC(=O)[C@H](Cc2ccccc2)NC(=O)[C@H](Cc2ccccc2)NC(=O)[C@H](CCCCN)NC(=O)[C@@H](N)CSSC[C@@H](C(=O)O)NC(=O)[C@H](CO)NC(=O)[C@H]([C@@H](C)O)NC(=O)[C@H](Cc2ccccc2)NC(=O)[C@H]([C@@H](C)O)NC1=O | > 1000 | 450 | > 10000 | > 10000 | > 1000
CC(C)CNCc1ccc(C[C@@H]2NC(=O)[C@@H](Cc3c[nH]c4ccccc34)NC(=O)[C@H](Cc3ccccc3)NC(=O)[C@H](Cc3ccccc3)NC(=O)[C@H](CCCCN)NC(=O)[C@@H](N)CSSC[C@@H](C(=O)O)NC(=O)[C@H](CO)NC(=O)[C@H]([C@@H](C)O)NC(=O)[C@H](Cc3ccccc3)NC(=O)[C@H]([C@@H](C)O)NC2=O)cc1 (H-CKFF[dW][X1]TFTSC-OH; disulfide 1-11) | 381 | 130 | > 1000 | > 1000 | > 1000
C[C@@H](O)[C@@H]1NC(=O)[C@H](CCCCN)NC(=O)[C@@H](Cc2c[nH]c3ccccc23)NC(=O)[C@H](Cc2ccccc2)NC(=O)[C@H](Cc2ccccc2)NC(=O)[C@@H](N)CSSC[C@@H](C(=O)O)NC(=O)[C@H](Cc2ccccc2)NC1=O (H-CFF[dW]KTFC-OH; disulfide 1-8) |  |  |  | 43.8 | 1.3
CC(C)NCc1ccc(C[C@@H]2NC(=O)[C@@H](Cc3ccc4ccccc4c3)NC(=O)[C@H](Cc3ccccc3)NC(=O)[C@H](Cc3ccccc3)NC(=O)[C@H](CCCCN)NC(=O)[C@H](NC(=O)CCc3ccc(O)cc3)CSSC[C@@H](C(=O)O)NC(=O)[C@H](CO)NC(=O)[C@H]([C@@H](C)O)NC(=O)[C@H](Cc3ccccc3)NC(=O)[C@@H]([C@@H](C)O)NC2=O)cc1 (stereo in doubt; 30) | 750 | 845 | > 1000 |  | 
CC(C)NCc1ccc(C[C@@H]2NC(=O)[C@@H](Cc3c[nH]c4ccccc34)NC(=O)[C@H](Cc3ccccc3)NC(=O)[C@H](Cc3ccccc3)NC(=O)[C@@H](N)CSSC[C@@H](C(=O)O)NC(=O)[C@H](Cc3ccccc3)NC(=O)[C@H]([C@@H](C)O)NC2=O)cc1 (H-CFF[dW][Phe(4-CH2NHiPr)]TFC-OH; disulfide 1-8) |  |  | > 10000 | > 10000 | 
CC(C)NCc1ccc(C[C@@H]2NC(=O)[C@@H](Cc3c[nH]c4ccccc34)NC(=O)[C@H](Cc3ccccc3)NC(=O)[C@H](Cc3ccccc3)NC(=O)[C@H](CCCCN)NC(=O)[C@@H](NC(=O)[C@@H](N)Cc3ccc(O)cc3)CSSC[C@@H](C(=O)O)NC(=O)[C@H](CO)NC(=O)[C@H]([C@@H](C)O)NC(=O)[C@H](Cc3ccccc3)NC(=O)[C@H]([C@@H](C)O)NC2=O)cc1 | 713 |  |  |  | > 10000
CC(C)NCc1ccc(C[C@@H]2NC(=O)[C@@H](Cc3c[nH]c4ccccc34)NC(=O)[C@H](Cc3ccccc3)NC(=O)[C@H](Cc3ccccc3)NC(=O)[C@H](CCCCN)NC(=O)[C@@H](N)CSSC[C@@H](C(=O)O)NC(=O)[C@H](CO)NC(=O)[C@H]([C@@H](C)O)NC(=O)[C@H](Cc3ccccc3)NC(=O)[C@H]([C@@H](C)O)NC2=O)cc1 (H-CKFF[dW][Phe(4-CH2NHiPr)]TFTSC-OH; disulfide 1-11) | 345 |  | > 10000 | > 10000 | 
CC(C)NCc1ccc(C[C@@H]2NC(=O)[C@@H](Cc3c[nH]c4ccccc34)NC(=O)[C@H](Cc3ccccc3)NC(=O)[C@H](Cc3ccccc3)NC(=O)[C@H](CCCCN)NC(=O)[C@H](NC(=O)[C@@H](N)Cc3ccc(O)cc3)CSSC[C@@H](C(=O)O)NC(=O)[C@H](CO)NC(=O)[C@H]([C@@H](C)O)NC(=O)[C@H](Cc3ccccc3)NC(=O)[C@H]([C@@H](C)O)NC2=O)cc1 | > 1000 |  |  | > 10000 | > 1000
